# According to ChEMBL document CHEMBL5365528, “Expanding the Role of Boron in New Drug Chemotypes: Properties, Chemistry, Pharmaceutical Potential of Hemiboronic Naphthoids” (J Med Chem, 2023):
# Calls of active or inactive are those of the source. The calls are words filed in the database; no cut-off is given here.
# Assays:
# [1] = target: T1, Poly [ADP-ribose] polymerase 1 (Homo sapiens, UniProt P09874); assay: Inhibition of N-terminal GST-tagged full length human PARP1 (2 to 1014 residues) expressed in baculovirus-infected Sf9 cells using histone as substrate incubated for 60 mins in presence of activated DNA, NAD+, NAD+-biotin by luminescence based analysis
# T1 sequence (P09874 whole entry, the tested form may be a part): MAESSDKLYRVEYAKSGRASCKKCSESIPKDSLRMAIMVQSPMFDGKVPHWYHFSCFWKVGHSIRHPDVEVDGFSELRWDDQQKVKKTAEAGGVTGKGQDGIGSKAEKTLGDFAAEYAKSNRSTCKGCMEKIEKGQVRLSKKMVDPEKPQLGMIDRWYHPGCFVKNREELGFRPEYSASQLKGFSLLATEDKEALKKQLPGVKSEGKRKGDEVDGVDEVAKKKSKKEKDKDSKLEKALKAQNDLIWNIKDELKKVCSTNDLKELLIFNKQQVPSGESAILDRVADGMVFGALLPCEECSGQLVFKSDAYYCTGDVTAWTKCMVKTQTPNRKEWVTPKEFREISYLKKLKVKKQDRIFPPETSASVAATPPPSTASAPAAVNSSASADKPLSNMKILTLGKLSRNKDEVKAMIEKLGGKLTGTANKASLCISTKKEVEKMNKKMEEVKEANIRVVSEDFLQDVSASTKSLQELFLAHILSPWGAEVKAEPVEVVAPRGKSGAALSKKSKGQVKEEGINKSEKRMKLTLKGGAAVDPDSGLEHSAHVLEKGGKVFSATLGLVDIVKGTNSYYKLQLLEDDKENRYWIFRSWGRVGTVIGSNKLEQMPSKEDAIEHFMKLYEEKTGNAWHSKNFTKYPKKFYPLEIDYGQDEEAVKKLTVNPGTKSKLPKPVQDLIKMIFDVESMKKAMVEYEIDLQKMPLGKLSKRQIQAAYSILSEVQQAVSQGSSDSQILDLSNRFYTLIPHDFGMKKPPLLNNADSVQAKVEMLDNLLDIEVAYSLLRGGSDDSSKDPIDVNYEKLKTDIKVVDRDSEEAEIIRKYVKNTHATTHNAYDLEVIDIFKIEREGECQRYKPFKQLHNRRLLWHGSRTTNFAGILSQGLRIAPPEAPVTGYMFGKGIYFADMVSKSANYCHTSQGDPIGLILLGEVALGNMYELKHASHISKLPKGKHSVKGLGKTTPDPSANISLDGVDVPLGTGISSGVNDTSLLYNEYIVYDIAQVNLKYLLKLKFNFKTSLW
# [2] = target: T2, Poly [ADP-ribose] polymerase 2 (Homo sapiens, UniProt Q9UGN5); assay: Inhibition of N-terminal GST-tagged human PARP2 (2 to 583 residues) expressed in baculovirus-infected Sf9 cells using histone as substrate incubated for 60 mins in presence of activated DNA, NAD+, NAD+-biotin by luminescence based analysis
# T2 sequence (Q9UGN5 whole entry, the tested form may be a part): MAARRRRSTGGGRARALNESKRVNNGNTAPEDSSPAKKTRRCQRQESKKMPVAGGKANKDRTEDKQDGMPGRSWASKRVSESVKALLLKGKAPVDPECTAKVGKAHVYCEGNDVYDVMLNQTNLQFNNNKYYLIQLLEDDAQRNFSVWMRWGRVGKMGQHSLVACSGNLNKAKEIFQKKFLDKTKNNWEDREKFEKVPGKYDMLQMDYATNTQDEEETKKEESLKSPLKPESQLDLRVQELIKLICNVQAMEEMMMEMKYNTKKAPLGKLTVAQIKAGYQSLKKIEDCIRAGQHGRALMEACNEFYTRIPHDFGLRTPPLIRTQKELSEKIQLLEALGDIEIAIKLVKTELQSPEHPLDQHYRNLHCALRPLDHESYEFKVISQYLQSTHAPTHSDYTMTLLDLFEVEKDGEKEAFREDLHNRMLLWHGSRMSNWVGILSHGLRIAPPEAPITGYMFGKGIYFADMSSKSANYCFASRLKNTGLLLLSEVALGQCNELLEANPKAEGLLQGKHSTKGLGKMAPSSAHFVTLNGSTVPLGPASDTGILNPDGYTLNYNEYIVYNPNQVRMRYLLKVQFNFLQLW
# Candida albicans [3] = assay: Antifungal activity against Candida albicans UAMH 3489 assessed as inhibition of fungal growth at 100 uM incubated for 24 hrs; type: functional, organism-based
# [4] = target: 3',5'-cyclic-AMP phosphodiesterase 4B (Homo sapiens) (UniProt Q07343); assay: Inhibition of N-terminal GST-tagged full length human PDE4B1 (1 to 736 residues) expressed in baculovirus-infected Sf9 cells using FAM-cAMP as substrate at 2 uM measured after 60 mins by fluorescence based analysis
# Sequence of 3',5'-cyclic-AMP phosphodiesterase 4B (Homo sapiens) (Q07343 whole entry, the tested form may be a part): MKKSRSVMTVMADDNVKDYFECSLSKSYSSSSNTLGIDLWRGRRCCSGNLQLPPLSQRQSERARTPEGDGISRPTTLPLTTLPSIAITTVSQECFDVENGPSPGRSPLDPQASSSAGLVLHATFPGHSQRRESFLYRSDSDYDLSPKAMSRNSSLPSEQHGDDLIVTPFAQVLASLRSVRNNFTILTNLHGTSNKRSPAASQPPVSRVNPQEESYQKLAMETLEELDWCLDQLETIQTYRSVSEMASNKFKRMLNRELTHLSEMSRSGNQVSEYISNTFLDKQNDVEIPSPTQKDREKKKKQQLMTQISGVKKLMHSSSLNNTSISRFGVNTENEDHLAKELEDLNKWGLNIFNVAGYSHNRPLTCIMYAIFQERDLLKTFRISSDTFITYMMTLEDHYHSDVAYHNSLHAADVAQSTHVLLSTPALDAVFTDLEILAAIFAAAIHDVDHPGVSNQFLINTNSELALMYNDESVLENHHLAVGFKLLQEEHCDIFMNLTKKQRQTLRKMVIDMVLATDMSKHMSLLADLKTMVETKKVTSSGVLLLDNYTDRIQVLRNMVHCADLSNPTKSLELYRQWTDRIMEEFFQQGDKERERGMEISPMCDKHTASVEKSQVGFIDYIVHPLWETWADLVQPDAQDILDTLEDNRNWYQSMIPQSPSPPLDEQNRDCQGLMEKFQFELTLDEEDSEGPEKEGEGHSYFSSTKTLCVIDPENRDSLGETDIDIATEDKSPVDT
# Staphylococcus aureus [5] = assay: Antibacterial activity against Staphylococcus aureus ATCC 43300 assessed as inhibition of bacterial growth at 100 uM incubated for 18 hrs; type: functional, organism-based
# Candida albicans [6] = assay: Antifungal activity against Candida albicans UAMH 3489 assessed as inhibition of fungal growth incubated for 24 hrs; type: functional
# [7] = Lipophilicity, log D of the compound in Octanol/PBS buffer at pH 7.4 measured after 1 hr by LC-MS/MS analysis; type: physicochemical
# [8] = target: T2, Poly [ADP-ribose] polymerase 2; assay: Inhibition of N-terminal GST-tagged human PARP2 (2 to 583 residues) expressed in baculovirus-infected Sf9 cells using histone as substrate at 1000 nM incubated for 60 mins in presence of activated DNA, NAD+, NAD+-biotin by luminescence based analysis
# [9] = target: T1, Poly [ADP-ribose] polymerase 1; assay: Inhibition of N-terminal GST-tagged full length human PARP1 (2 to 1014 residues) expressed in baculovirus-infected Sf9 cells using histone as substrate at 1000 nM incubated for 60 mins in presence of activated DNA, NAD+, NAD+-biotin by luminescence based analysis
# [10] = Permeability of the compound across apical to basolateral membrane in human Caco-2 cells at 10 uM measured for 90 mins by LC-MS/MS analysis; type: ADME, cell-based
# [11] = Protein binding in human plasma at 1 uM measured after 6 hrs by LC-MS/MS analysis; type: ADME, cell-free; conditions: read-out: PPB (converted)
# [12] = Kinetic solubility of the compound in PBS buffer at pH 7.4 measured after 2 hrs by LC-MS/MS analysis; type: physicochemical; conditions: read-out: Kinetic_solubility
# Staphylococcus aureus [13] = assay: Antibacterial activity against Staphylococcus aureus ATCC 43300 assessed as inhibition of bacterial growth incubated for 18 hrs; type: functional
# [14] = Dissociation constant, pKa of the compound in aqueous phosphate buffer with 3 to 4% DMSO; type: physicochemical
# [15] = Half life in human hepatocytes at 1 uM by LC-MS/MS analysis; type: ADME, cell-based, Hepatocyte
# [16] = Clearance in human hepatocytes at 1 uM measured per million cells by LC-MS/MS analysis; type: ADME, cell-based, Hepatocyte; conditions: read-out: CLH
# [17] = Stability of the compound in d6-DMSO with drop of D2O and measured for >1 month at room temperature by NMR spectroscopy; type: physicochemical; conditions: time > 1 months, read-out: Stability
# [18] = Dissociation constant, pKa of the compound in 1:1 CH3CN/aqueous phosphate buffer; type: physicochemical
# [19] = Hepatic blood flow in human; type: ADME
# [20] = Permeability of the compound across basolateral to apical membrane in human Caco-2 cells at 10 uM measured for 90 mins by LC-MS/MS analysis; type: ADME, cell-based
# [21] = Lipophilicity, log P of the compound in octanol/water by RP-HPLC analysis; type: physicochemical
# [22] = Efflux ratio of permeability across basolateral to apical membrane over apical to basolateral membrane in human Caco-2 cells at 10 uM measured for 90 mins by LC-MS/MS analysis; type: ADME, cell-based
# [23] = target: 3',5'-cyclic-AMP phosphodiesterase 4B (Homo sapiens) (UniProt Q07343); assay: Inhibition of N-terminal GST-tagged full length human PDE4B1 (1 to 736 residues) expressed in baculovirus-infected Sf9 cells using FAM-cAMP as substrate at 0.1 uM measured after 60 mins by fluorescence based analysis
compound,measurement,setting,value
O=C(c1cc(CC2=NNB(O)c3ccccc32)ccc1F)N1CCN(C(=O)C2CC2)CC1,IC50,[1],~540 nM
same,IC50,[2],120 nM
N#Cc1ccc(Oc2ccc3c(c2)C=NOB3O)cc1,Activity,Candida albicans [3],inactive
same,inhibition,[4],23%
O=C(Nc1ccc2c(c1)B(O)NN=C2)c1ccc(F)cc1C(F)(F)F,Activity,Staphylococcus aureus [5],inactive
N#Cc1ccc(Oc2ccc3c(c2)C(c2ccccc2)=NOB3O)cc1,inhibition,[4],15%
OB1NN=C(c2ccccc2)c2cc(F)ccc21,MIC,Candida albicans [6],> 128 µM
same,Activity,Staphylococcus aureus [5],inactive
CCCSc1ccc2nc(NC(=O)OC)[nH]c2c1 [ALBENDAZOLE],logD at 1 h,[7],3.57
O=C(c1cc(CC2=NOB(O)c3ccccc32)ccc1F)N1CCN(C(=O)C2CC2)CC1,IC50,[1],> 1000 nM
same,inhibition,[8],18%
same,IC50,[2],> 1000 nM
same,inhibition,[9],inactive
OB1ON=Cc2cc(-c3ccsc3)ccc21,MIC,Candida albicans [6],2 µM
OC(Cn1cncn1)(Cn1cncn1)c1ccc(F)cc1F [FLUCONAZOLE],MIC,Candida albicans [6],4 µM
CC(C)NCC(O)COc1cccc2ccccc12 (stereo unspecified) [PROPRANOLOL],"Papp A→B at 1.5 h, 10 µM",[10],3.4 ×10⁻⁶ cm/s
CCCC(=O)Nc1ccc(OCC(O)CNC(C)C)c(C(C)=O)c1 (stereo unspecified) [ACEBUTOLOL],"fraction unbound at 6 h, 1 µM",[11],0.707
CN(C)CCCN1c2ccccc2CCc2ccccc21 [IMIPRAMINE],solubility kinetic at 2 h,[12],457 µM
O=C(Nc1ccc2c(c1)B(O)NN=C2c1ccccc1)c1ccc(F)cc1C(F)(F)F,MIC,Staphylococcus aureus [13],64 µM
OB1OCc2cc(F)ccc21 [TAVABOROLE],"fraction unbound at 6 h, 1 µM",[11],0.34
same,pKa,[14],7.4
same,MIC,Candida albicans [6],1 µM
same,MIC,Staphylococcus aureus [13],128 µM
same,solubility kinetic at 2 h,[12],> 658 µM
OB1ON=Cc2cc(-c3ccoc3)ccc21,MIC,Candida albicans [6],2 µM
OB1NN=Cc2ccccc21,"fraction unbound at 6 h, 1 µM",[11],0.082
same,logD at 1 h,[7],2.03
same,half-life at 1 µM,[15],> 6 h
same,hepatocyte CLint at 1 µM,[16],< 3.9 µL/min/1e6 cells
same,pKa,[14],> 14
same,remaining at 730 h,[17],> 99%
same,"Papp A→B at 1.5 h, 10 µM",[10],30.1 ×10⁻⁶ cm/s
same,pKa,[18],> 14
same,percent of hepatic blood flow,[19],< 36.1%
same,"Papp B→A at 1.5 h, 10 µM",[20],30.6 ×10⁻⁶ cm/s
same,Activity,Candida albicans [3],inactive
same,logP,[21],1.94
same,"efflux ratio at 1.5 h, 10 µM",[22],1
same,solubility kinetic at 2 h,[12],≥ 439 µM
OB1ON=Cc2ccccc21,"fraction unbound at 6 h, 1 µM",[11],0.71
same,logD at 1 h,[7],~0.65
same,half-life at 1 µM,[15],0.785 h
same,hepatocyte CLint at 1 µM,[16],29.7 µL/min/1e6 cells
same,pKa,[14],5.5
same,remaining at 730 h,[17],> 99%
same,"Papp A→B at 1.5 h, 10 µM",[10],33 ×10⁻⁶ cm/s
same,pKa,[18],7.1
same,MIC,Candida albicans [6],16 µM
same,percent of hepatic blood flow,[19],81.2%
same,"Papp B→A at 1.5 h, 10 µM",[20],4.4 ×10⁻⁶ cm/s
same,logP,[21],1.23
same,"efflux ratio at 1.5 h, 10 µM",[22],0.13
same,solubility kinetic at 2 h,[12],≥ 386 µM
COC(=O)C1=C(C)NC(C)=C(C(=O)OCCN(C)Cc2ccccc2)C1c1cccc([N+](=O)[O-])c1 (stereo unspecified) [NICARDIPINE],solubility kinetic at 2 h,[12],4.7 µM
C[C@]12CC[C@H]3[C@@H](CCC4=CC(=O)CC[C@@]43C)[C@@H]1CC[C@@H]2O [TESTOSTERONE],half-life at 1 µM,[15],0.417 h
same,hepatocyte CLint at 1 µM,[16],60.2 µL/min/1e6 cells
same,percent of hepatic blood flow,[19],89.1%
OB1ON=Cc2cc(-c3ccccc3)ccc21,MIC,Candida albicans [6],8 µM
OB1OCc2ccccc21 [BENZOXABOROLE],pKa,[14],7.4
same,pKa,[18],9.2
OB1ON=Cc2cc(-c3ccc(F)cc3)ccc21,MIC,Candida albicans [6],4 µM
OB1ON=Cc2cc(F)ccc21,MIC,Candida albicans [6],8 µM
same,Activity,Staphylococcus aureus [5],inactive
COc1ccc(C2=NOB(O)c3ccccc32)cc1Br,MIC,Staphylococcus aureus [13],16 µM
OB1NN=Cc2cc(-c3ccc(C(F)(F)F)cc3)ccc21,Activity,Candida albicans [3],inactive
C[C@H]1O[C@@H](O[C@H]2[C@@H](O)C[C@H](O[C@H]3[C@@H](O)C[C@H](O[C@H]4CC[C@@]5(C)[C@H](CC[C@@H]6[C@@H]5C[C@@H](O)[C@]5(C)[C@@H](C7=CC(=O)OC7)CC[C@]65O)C4)O[C@@H]3C)O[C@@H]2C)C[C@H](O)[C@@H]1O [DIGOXIN],"Papp A→B at 1.5 h, 10 µM",[10],1 ×10⁻⁶ cm/s
same,"Papp B→A at 1.5 h, 10 µM",[20],13.1 ×10⁻⁶ cm/s
same,"efflux ratio at 1.5 h, 10 µM",[22],13.4
N#Cc1ccc(Oc2ccc3c(c2)C=NNB3O)cc1,inhibition,[4],5%
CN[C@H](CC(C)C)C(=O)N[C@H]1C(=O)N[C@@H](CC(N)=O)C(=O)N[C@H]2C(=O)N[C@H]3C(=O)N[C@H](C(=O)N[C@H](C(=O)O)c4cc(O)cc(O)c4-c4cc3ccc4O)[C@H](O)c3ccc(c(Cl)c3)Oc3cc2cc(c3O[C@@H]2O[C@H](CO)[C@@H](O)[C@H](O)[C@H]2O[C@H]2C[C@](C)(N)[C@H](O)[C@H](C)O2)Oc2ccc(cc2Cl)[C@H]1O [VANCOMYCIN],MIC,Staphylococcus aureus [13],4 µM
COc1ccc2c(c1)C(c1ccccc1)=NOB2O,MIC,Staphylococcus aureus [13],8 µM
OB1ON=C(c2ccccc2)c2ccccc21,"fraction unbound at 6 h, 1 µM",[11],0.102
same,logD at 1 h,[7],0.71
same,half-life at 1 µM,[15],> 6 h
same,hepatocyte CLint at 1 µM,[16],< 3.9 µL/min/1e6 cells
same,pKa,[14],~5.5
same,remaining at 730 h,[17],> 99%
same,"Papp A→B at 1.5 h, 10 µM",[10],34.5 ×10⁻⁶ cm/s
same,pKa,[18],7
same,MIC,Candida albicans [6],32 µM
same,percent of hepatic blood flow,[19],< 36.1%
same,"Papp B→A at 1.5 h, 10 µM",[20],4 ×10⁻⁶ cm/s
same,MIC,Staphylococcus aureus [13],128 µM
same,logP,[21],2.6
same,"efflux ratio at 1.5 h, 10 µM",[22],0.12
same,solubility kinetic at 2 h,[12],≥ 403 µM
OB1NN=C(c2ccccc2)c2ccccc21,"fraction unbound at 6 h, 1 µM",[11],0.0141
same,logD at 1 h,[7],3.44
same,half-life at 1 µM,[15],1.81 h
same,hepatocyte CLint at 1 µM,[16],12.8 µL/min/1e6 cells
same,pKa,[14],> 14
same,remaining at 730 h,[17],> 99%
same,"Papp A→B at 1.5 h, 10 µM",[10],26.9 ×10⁻⁶ cm/s
same,pKa,[18],> 13
same,percent of hepatic blood flow,[19],65.2%
same,"Papp B→A at 1.5 h, 10 µM",[20],22.1 ×10⁻⁶ cm/s
same,logP,[21],3.72
same,"efflux ratio at 1.5 h, 10 µM",[22],0.82
same,solubility kinetic at 2 h,[12],189 µM
OB1ON=C(c2ccccc2)c2cc(F)ccc21,MIC,Candida albicans [6],16 µM
same,MIC,Staphylococcus aureus [13],64 µM
N#Cc1ccc(Oc2ccc3c(c2)COB3O)cc1,inhibition,[23],11%
COc1ccc(C2=NOB(O)c3ccccc32)cc1,MIC,Candida albicans [6],32 µM
same,MIC,Staphylococcus aureus [13],64 µM
OB1NN=Cc2cc(F)ccc21,MIC,Candida albicans [6],> 128 µM
OB1ON=Cc2cc(-c3ccc(C(F)(F)F)cc3)ccc21,MIC,Candida albicans [6],0.125 µM
